Assay results published in BigSolDB 2.1.

O=C[C@H](O)[C@H](O)[C@H](O)CO
solubility (mole fraction) (in acetone, 283.15 K): 0.00234
solubility (mole fraction) (in acetone, 293.15 K): 0.00302
solubility (mole fraction) (in acetone, 303.15 K): 0.00509
solubility (mole fraction) (in acetone, 313.15 K): 0.0077
solubility (mole fraction) (in acetone, 323.15 K): 0.0118
solubility (mole fraction) (in acetonitrile, 283.15 K): 0.00109
solubility (mole fraction) (in acetonitrile, 293.15 K): 0.00144
solubility (mole fraction) (in acetonitrile, 303.15 K): 0.0022
solubility (mole fraction) (in acetonitrile, 313.15 K): 0.00357
solubility (mole fraction) (in acetonitrile, 323.15 K): 0.00626
solubility (mole fraction) (in dichloromethane, 283.15 K): 0.000102
solubility (mole fraction) (in dichloromethane, 288.15 K): 0.000257
solubility (mole fraction) (in dichloromethane, 293.15 K): 0.000367
solubility (mole fraction) (in dichloromethane, 298.15 K): 0.000402
solubility (mole fraction) (in dichloromethane, 303.15 K): 0.000529
solubility (mole fraction) (in ethanol, 283.15 K): 0.00798
solubility (mole fraction) (in ethanol, 293.15 K): 0.0121
solubility (mole fraction) (in ethanol, 303.15 K): 0.0213
solubility (mole fraction) (in ethanol, 313.15 K): 0.0394
solubility (mole fraction) (in ethanol, 323.15 K): 0.0675
solubility (mole fraction) (in ethyl acetate, 283.15 K): 0.000876
solubility (mole fraction) (in ethyl acetate, 293.15 K): 0.00107
solubility (mole fraction) (in ethyl acetate, 303.15 K): 0.00162
solubility (mole fraction) (in ethyl acetate, 313.15 K): 0.00257
solubility (mole fraction) (in ethyl acetate, 323.15 K): 0.0036
solubility (mole fraction) (in isobutanol, 283.15 K): 0.00334
solubility (mole fraction) (in isobutanol, 293.15 K): 0.00421
solubility (mole fraction) (in isobutanol, 303.15 K): 0.0063
solubility (mole fraction) (in isobutanol, 313.15 K): 0.0102
solubility (mole fraction) (in isobutanol, 323.15 K): 0.0156
solubility (mole fraction) (in isopropanol, 283.15 K): 0.00457
solubility (mole fraction) (in isopropanol, 293.15 K): 0.00703
solubility (mole fraction) (in isopropanol, 303.15 K): 0.0117
solubility (mole fraction) (in isopropanol, 313.15 K): 0.021
solubility (mole fraction) (in isopropanol, 323.15 K): 0.0426
solubility (mole fraction) (in methanol, 283.15 K): 0.0313
solubility (mole fraction) (in methanol, 288.15 K): 0.0457
solubility (mole fraction) (in methanol, 293.15 K): 0.0587
solubility (mole fraction) (in methanol, 298.15 K): 0.0771
solubility (mole fraction) (in methanol, 303.15 K): 0.108
solubility (mole fraction) (in n-butanol, 283.15 K): 0.00388
solubility (mole fraction) (in n-butanol, 293.15 K): 0.00485
solubility (mole fraction) (in n-butanol, 303.15 K): 0.00814
solubility (mole fraction) (in n-butanol, 313.15 K): 0.0124
solubility (mole fraction) (in n-butanol, 323.15 K): 0.0201
solubility (mole fraction) (in n-hexane, 283.15 K): 3.77e-05
solubility (mole fraction) (in n-hexane, 293.15 K): 7.32e-05
solubility (mole fraction) (in n-hexane, 303.15 K): 0.000101
solubility (mole fraction) (in n-hexane, 313.15 K): 0.000174
solubility (mole fraction) (in n-hexane, 323.15 K): 0.000205
solubility (mole fraction) (in n-propanol, 283.15 K): 0.00515
solubility (mole fraction) (in n-propanol, 293.15 K): 0.00691
solubility (mole fraction) (in n-propanol, 303.15 K): 0.0112
solubility (mole fraction) (in n-propanol, 313.15 K): 0.0179
solubility (mole fraction) (in n-propanol, 323.15 K): 0.0305
solubility (mole fraction) (in sec-butanol, 283.15 K): 0.00484
solubility (mole fraction) (in sec-butanol, 293.15 K): 0.00567
solubility (mole fraction) (in sec-butanol, 303.15 K): 0.00894
solubility (mole fraction) (in sec-butanol, 313.15 K): 0.0152
solubility (mole fraction) (in sec-butanol, 323.15 K): 0.0242
